Measurements from US9868719B2, “Compounds with pesticidal activity” (BAYER CROPSCIENCE AKTIENGESELLSCHAFT, priority 2013, dated 2018).
Read-outs that look alike come from different tables or passages of the source.

Legend:
logP = details: for chromatographic logP: HCOOH (formic acid)
Meloidogyne incognita = experiment: Meloidogyne incognita-Test, gall formation on salad seedlings; format: in vivo; details: 336 h, read-out: nematicidal activity (on the basis of gall formation)
Protocol: Meloidogyne incognita-Test
Solvent: 125.0 parts by weight of acetone
To produce a suitable preparation of active compound, 1 part by weight of active compound is mixed with the stated amount of solvent, and the concentrate is diluted with water to the desired concentration.
Vessels are filled with sand, a solution of the active ingredient, a suspension containing eggs and larvae of the southern root-knot nematode (Meloidogyne incognita) and salad seeds. The salad seeds germinate and the seedlings grow. Galls develop in the roots.
After 14 days the nematicidal activity is determined on the basis of the percentage of gall formation. 100% means no galls were found and 0% means the number of galls found on the roots of the treated plants was equal to that in untreated control plants.

Cooperia curticei = experiment: microbe, parasite or virus in culture; details: 120 h, read-out: activity (larval mortality)
Protocol: Cooperia curticei-Test (COOPCU)
(§1) Solvent: dimethyl sulfoxide
(§2) To produce a suitable preparation of active compound, 10 mg of active compound are dissolved in 0.5 ml solvent, and the concentrate is diluted with “Ringer's solution” to the desired concentration.
Approximately 40 nematode larvae (Cooperia curticei) are transferred into a test tube containing the compound solution.
After 5 days percentage of larval mortality is recorded, 100% efficacy means all larvae are killed; 0% efficacy means no larvae are killed.

Haemonchus contortus = experiment: Haemonchus contortus-Test (HAEMCO), larval mortality; details: 120 h, read-out: activity (larval mortality)
Protocol: Haemonchus contortus-Test (HAEMCO)
as §1, §2
Approximately 40 larvae of the red stomach worm (Haemonchus contortus) are transferred into a test tube containing compound solution.
After 5 days percentage of larval mortality are recorded, 100% efficacy means all larvae are killed, 0% efficacy means no larvae are killed.

[1] = tested on: Nippostrongylus brasiliensis; experiment: Nippostrongylus brasiliensis-Test (NIPOBR), in vitro efficacy, acetylcholine esterase readout; details: 10 μg/ml, read-out: activity (reduction of AChe compared to negative control)
Protocol: Nippostrongylus brasiliensis-Test (NIPOBR) (In Vitro Efficacy Test)
Adult Nippostrongylus brasiliensis were washed with saline buffer containing 100 U/ml penicillin, 0.1 mg/ml streptomycin and 2.5 μg/ml amphotericin B. Test compounds were dissolved in DMSO, and worms were incubated in medium in a final concentration of 10 μg/ml. An aliquot of the medium was used to determine the acetylcholine esterase activity in comparison to a negative control. The principle of measuring acetylcholine esterase as readout for anthelmintic activity was described in Rapson et al (1986) and Rapson et al (1987).

| Compound | chromatographic logP (logP) | mortality at 20 ppm (Cooperia curticei) [%] | mortality at 20 ppm (Haemonchus contortus) [%] | also measured |
| --- | --- | --- | --- | --- |
| Cc1ccc(-c2cnc(C(C)(F)CNC(=O)c3ccccc3C(F)(F)F)c(Cl)c2)cn1 (centres unmarked) [Example 37] | 3.79 | – | – | – |
| O=C(NCCc1ncc(-c2ccc(Cl)nc2)cc1Cl)c1ccccc1C(F)(F)F [Example 6] | 3 | 100 | 100 | pest or weed control at 20 ppm (Meloidogyne incognita; 20 ppm, after 14 days): 1% |
| O=C(NCC(F)(F)c1ncc(-c2ccc(F)cn2)cc1Cl)c1nccnc1C(F)(F)F [Example 30] | 2.75 | – | – | – |
| O=C(NCC(F)(F)c1ncc(-c2ccc(OCC(F)(F)F)nc2)cc1Cl)c1ccccc1C(F)(F)F [Example 20] | 3.94 | 100 | 100 | pest or weed control at 20 ppm (Meloidogyne incognita; 20 ppm, after 14 days): 90% |
| O=C(NCC(F)(F)c1ncc(-c2ccc(F)nc2)cc1Cl)c1ccccc1C(F)(F)F [Example 16] | – | 100 | 100 | pest or weed control at 20 ppm (Meloidogyne incognita): 1%; inhibition at 10 µg/mL [1]: ≥ 60%; chromatographic logP (physchem): 3.02 |
| O=C(NCC(F)(F)c1ncc(-c2cccnc2)cc1Cl)c1ccccc1C(F)(F)F [Example 19] | – | 100 | 100 | inhibition at 10 µg/mL [1]: ≥ 60%; chromatographic logP (physchem): 2.27 |
| O=C(NCC(F)(F)c1ncc(-c2ccc(C(F)(F)F)nc2)cc1Cl)c1ccccc1C(F)(F)F [Example 11, N-{2-[5-chloro-6′-(trifluoromethyl)-3,3′-bipyridin-6-yl]-2,2-difluoroethyl}-2-(trifluoromethyl) benzamide] | 3.42 | 100 | 90 | – |
| O=C(NCCc1ncc(-n2cncn2)cc1Cl)c1ccccc1C(F)(F)F [Example 5] | 2.06 | – | 90 | pest or weed control at 20 ppm (Meloidogyne incognita; 20 ppm, after 14 days): 1% |
| O=C(NCC(F)(F)c1ncc(-c2ccc(F)cn2)cc1Cl)c1cccnc1C(F)(F)F [Example 29] | 2.57 | – | – | pest or weed control at 20 ppm (Meloidogyne incognita; 20 ppm, after 14 days): 1% |
| CC(F)(CNC(=O)c1ccccc1C(F)(F)F)c1ncc(-c2ccc(C(F)(F)F)nc2)cc1Cl (centres unmarked) [Example 35] | – | – | – | logP (logP): 3.55 |
| CC(F)(CNC(=O)c1ccccc1C(F)(F)F)c1ncc(-c2ccc(Cl)nc2)cc1Cl (centres unmarked) [Example 33] | 3.26 | – | – | – |
| Cc1ncccc1-c1cnc(C(F)(F)CNC(=O)c2ccccc2C(F)(F)F)c(Cl)c1 [Example 13] | 1.86 | – | – | pest or weed control at 20 ppm (Meloidogyne incognita; 20 ppm, after 14 days): 90%; mortality at 20 ppm (Cooperia curticei; 20 ppm, after 5 days): 90% |
| CN(C)c1ccc(-c2cnc(C(F)(F)CNC(=O)c3ccccc3C(F)(F)F)c(Cl)c2)cn1 [Example 42] | 1.97 | – | – | – |
| O=C(NCC(F)(F)c1ncc(-c2cnccc2Cl)cc1Cl)c1ccccc1C(F)(F)F [Example 21] | 2.88 | 80 | – | – |
| O=C(NCC(F)(F)c1ncc(-c2cncc(F)c2)cc1Cl)c1ccccc1C(F)(F)F [Example 10] | – | 100 | 100 | pest or weed control at 20 ppm (Meloidogyne incognita): 1%; inhibition at 10 µg/mL [1]: ≥ 60%; chromatographic logP (physchem): 2.84 |
| CC(F)(CNC(=O)c1cccnc1C(F)(F)F)c1ncc(-c2ccc(C(F)(F)F)nc2)cc1Cl (centres unmarked) [Example 36] | 3.17 | – | – | – |
| O=C(NCCc1ncc(-c2ccc(C(F)(F)F)nc2)cc1Cl)c1ccccc1C(F)(F)F [Example 7, N-{2-[5-chloro-6′-(trifluoromethyl)-3,3′-bipyridin-6-yl]ethyl}-2-(trifluoromethyl) benzamide] | 3.29 | 100 | 90 | pest or weed control at 20 ppm (Meloidogyne incognita; 20 ppm, after 14 days): 90% |
| O=C(NCC(F)(F)c1ncc(-c2ccc(Cl)nc2)cc1Cl)c1ccccc1C(F)(F)F [Example 12] | 3.21 | 100 | 90 | pest or weed control at 20 ppm (Meloidogyne incognita; 20 ppm, after 14 days): 90% |
| O=C(NCCc1ncc(-n2ccc(C(F)(F)F)n2)cc1Cl)c1ccccc1C(F)(F)F [Example 3] | – | 100 | 100 | pest or weed control at 20 ppm (Meloidogyne incognita): 1%; inhibition at 10 µg/mL [1]: ≥ 60%; chromatographic logP (physchem): 3.68 |
| O=C(NCCc1ncc(-n2ccnc2)cc1Cl)c1ccccc1C(F)(F)F [Example 1] | 1.21 | – | – | mortality at 20 ppm (Cooperia curticei; 20 ppm, after 5 days): 100%; mortality at 20 ppm (Haemonchus contortus; 20 ppm, after 5 days): 80% |

| Compound | chromatographic logP (logP) | mortality at 20 ppm (Cooperia curticei) [%] | mortality at 20 ppm (Haemonchus contortus) [%] | also measured |
| --- | --- | --- | --- | --- |
| O=C(NCC(F)(F)c1ncc(-c2cncc(Cl)c2)cc1Cl)c1ccccc1C(F)(F)F [Example 15] | – | 100 | 100 | pest or weed control at 20 ppm (Meloidogyne incognita): 90%; inhibition at 10 µg/mL [1]: ≥ 60%; chromatographic logP (physchem): 3.17 |
| O=C(NCC(F)(F)c1ncc(-c2cc(Cl)nc(Cl)c2)cc1Cl)c1ccccc1C(F)(F)F [Example 25] | – | 100 | 100 | pest or weed control at 20 ppm (Meloidogyne incognita): 1%; inhibition at 10 µg/mL [1]: ≥ 60%; chromatographic logP (physchem): 3.84 |
| O=C(NCCc1ncc(-n2cccn2)cc1Cl)c1ccccc1C(F)(F)F [Example 4, N-{2-[3-chloro-5-(1H-pyrazol-1-yl)pyridin-2-yl]ethyl}-2-(trifluoromethyl)benzamide] | – | 100 | 100 | pest or weed control at 20 ppm (Meloidogyne incognita): 1%; inhibition at 10 µg/mL [1]: ≥ 60%; chromatographic logP (physchem): 2.69 |
| O=C(NCC(F)(F)c1ncc(-c2ccnc(F)c2)cc1Cl)c1ccccc1C(F)(F)F [Example 23] | 2.96 | 100 | 100 | pest or weed control at 20 ppm (Meloidogyne incognita; 20 ppm, after 14 days): 1% |
| Cc1ccc(-c2cnc(C(C)(F)CNC(=O)c3cccnc3C(F)(F)F)c(Cl)c2)cn1 (centres unmarked) [Example 38] | 1.69 | – | – | – |
| O=C(NCC(F)(F)c1ncc(-c2ccoc2)cc1Cl)c1ccccc1C(F)(F)F [Example 8] | – | 100 | – | – |
| Cc1occc1-c1cnc(C(F)(F)CNC(=O)c2ccccc2C(F)(F)F)c(Cl)c1 [Example 9] | – | 100 | 90 | – |
| CC(F)(CNC(=O)c1ccccc1C(F)(F)F)c1ncc(-c2cncc(F)c2)cc1Cl (centres unmarked) [Example 39] | 2.99 | – | – | – |
| O=C(NCC(F)(F)c1ncc(-n2cc(C(F)(F)F)cn2)cc1Cl)c1ccccc1C(F)(F)F [Example 28] | – | 100 | 100 | pest or weed control at 20 ppm (Meloidogyne incognita): 1%; inhibition at 10 µg/mL [1]: ≥ 60% |
| O=C(NCC(F)(F)c1ncc(-c2cc(F)c(F)cn2)cc1Cl)c1ccccc1C(F)(F)F [Example 41] | 3.28 | – | – | – |
| O=C(NCC(F)(F)c1ncc(-c2ccncc2)cc1Cl)c1ccccc1C(F)(F)F [Example 22] | 2 | 100 | 90 | – |
| CC(F)(CNC(=O)c1cccnc1C(F)(F)F)c1ncc(-c2cncc(F)c2)cc1Cl (centres unmarked) [Example 40] | 2.49 | – | – | – |
| O=C(NCC(F)(F)c1ncc(-c2cccnc2Cl)cc1Cl)c1ccccc1C(F)(F)F [Example 14] | – | 100 | 100 | pest or weed control at 20 ppm (Meloidogyne incognita): 1%; inhibition at 10 µg/mL [1]: ≥ 60%; chromatographic logP (physchem): 3 |
| O=C(NCC(F)(F)c1ncc(-c2ccc(Cl)nc2Cl)cc1Cl)c1ccccc1C(F)(F)F [Example 18] | 3.68 | 100 | 80 | pest or weed control at 20 ppm (Meloidogyne incognita; 20 ppm, after 14 days): 1% |
| CC(C)Oc1ccc(-c2cnc(C(F)(F)CNC(=O)c3ccccc3C(F)(F)F)c(Cl)c2)cn1 [Example 17] | 4.15 | 100 | 90 | – |
| O=C(NCC(F)(F)c1ncc(-c2ccnc(Cl)c2)cc1Cl)c1ccccc1C(F)(F)F [Example 24] | 3.17 | 100 | 100 | pest or weed control at 20 ppm (Meloidogyne incognita; 20 ppm, after 14 days): 1% |
| O=C(NCCc1ncc(-n2cc(C(F)(F)F)cn2)cc1Cl)c1ccccc1C(F)(F)F [Example 2] | – | 100 | 100 | pest or weed control at 20 ppm (Meloidogyne incognita): 1%; inhibition at 10 µg/mL [1]: ≥ 60%; chromatographic logP (physchem): 3.65 |
| CC(F)(CNC(=O)c1ccccc1C(F)(F)F)c1ncc(-c2ccc(F)nc2)cc1Cl (centres unmarked) [Example 31] | 3.94 | – | – | – |
| CC(F)(CNC(=O)c1cccnc1C(F)(F)F)c1ncc(-c2ccc(F)nc2)cc1Cl (centres unmarked) [Example 32] | 2.66 | – | – | – |
